Results as given in the supplement of paper PMC10307832.

Tests used:
Assay in all cases: relative viability (nuclei count vs DMSO), 5 days (fraction); higher = more cells survive
Afatinib = compound: CN(C)C/C=C/C(=O)Nc1cc2c(Nc3ccc(F)c(Cl)c3)ncnc2cc1O[C@H]1CCOC1 [Afatinib]
How it was run: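 Viability is treated-well nuclei as a fraction of vehicle-well nuclei, reported as the median across plates. Before counting, lung cancer cell lines were kept overnight at 37 °C in 1536-well plates, pinned with five √10-spaced library-drug doses on vehicle-anchored plates, and left 5 days without medium change, then fixed, permeabilised and Hoechst-stained in one step, imaged at 4× and counted by MetaXpress. A plate passed only if control CV was below 25% and at least one doubling occurred.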

Afatinib + Trametinib = compound: CN(C)C/C=C/C(=O)Nc1cc2c(Nc3ccc(F)c(Cl)c3)ncnc2cc1O[C@H]1CCOC1 [Afatinib] + CC(=O)Nc1cccc(-n2c(=O)n(C3CC3)c(=O)c3c(Nc4ccc(I)cc4F)n(C)c(=O)c(C)c32)c1 [Trametinib] (partner 0.02 µM)
How it was run: (§1)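 Cells from lung cancer lines were seeded into 1536-well plates and, one day later, dosed by pin tool. Treatments were either a single drug or a fixed dose of an anchor drug with five library-drug doses (not always all listed) in √10 steps. After 5 days, nuclei were stained in a one-step fixation (final 0.05% Triton X-100, 1% formaldehyde, 1 ug/ml Hoechst) and counted on 4× images, and relative viability is the treated-to-vehicle nuclei ratio, as the median of duplicate plates.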

Afatinib + Palbociclib = compound: CN(C)C/C=C/C(=O)Nc1cc2c(Nc3ccc(F)c(Cl)c3)ncnc2cc1O[C@H]1CCOC1 [Afatinib] + CC(=O)c1c(C)c2cnc(Nc3ccc(N4CCNCC4)cn3)nc2n(C2CCCC2)c1=O [Palbociclib] (partner 0.5 µM)
How it was run: as §1

Afatinib + Luminespib = compound: CN(C)C/C=C/C(=O)Nc1cc2c(Nc3ccc(F)c(Cl)c3)ncnc2cc1O[C@H]1CCOC1 [Afatinib] + CCNC(=O)c1noc(-c2cc(C(C)C)c(O)cc2O)c1-c1ccc(CN2CCOCC2)cc1 [Luminespib] (partner 0.01 µM)
How it was run: as §1

Afatinib + OSI-027 = compound: CN(C)C/C=C/C(=O)Nc1cc2c(Nc3ccc(F)c(Cl)c3)ncnc2cc1O[C@H]1CCOC1 [Afatinib] + COc1cccc2cc(-c3nc([C@H]4CC[C@H](C(=O)O)CC4)n4ncnc(N)c34)[nH]c12 [OSI-027] (partner 0.5 µM)
How it was run: as §1

Afatinib + Tozasertib = compound: CN(C)C/C=C/C(=O)Nc1cc2c(Nc3ccc(F)c(Cl)c3)ncnc2cc1O[C@H]1CCOC1 [Afatinib] + Cc1cc(Nc2cc(N3CCN(C)CC3)nc(Sc3ccc(NC(=O)C4CC4)cc3)n2)n[nH]1 [Tozasertib] (partner 0.1 µM)
How it was run: as §1

Afatinib + Dasatinib = compound: CN(C)C/C=C/C(=O)Nc1cc2c(Nc3ccc(F)c(Cl)c3)ncnc2cc1O[C@H]1CCOC1 [Afatinib] + Cc1nc(Nc2ncc(C(=O)Nc3c(C)cccc3Cl)s2)cc(N2CCN(CCO)CC2)n1 [Dasatinib] (partner 0.075 µM)
How it was run: as §1

Afatinib + Phenformin = compound: CN(C)C/C=C/C(=O)Nc1cc2c(Nc3ccc(F)c(Cl)c3)ncnc2cc1O[C@H]1CCOC1 [Afatinib] + N=C(N)NC(=N)NCCc1ccccc1 [Phenformin] (partner 250 µM)
How it was run: as §1

Afatinib + AZD7762 = compound: CN(C)C/C=C/C(=O)Nc1cc2c(Nc3ccc(F)c(Cl)c3)ncnc2cc1O[C@H]1CCOC1 [Afatinib] + NC(=O)Nc1cc(-c2cccc(F)c2)sc1C(=O)N[C@H]1CCCNC1 [AZD7762] (partner 0.2 µM)
How it was run: as §1

Afatinib + Pemetrexed = compound: CN(C)C/C=C/C(=O)Nc1cc2c(Nc3ccc(F)c(Cl)c3)ncnc2cc1O[C@H]1CCOC1 [Afatinib] + Nc1nc2[nH]cc(CCc3ccc(C(=O)N[C@@H](CCC(=O)O)C(=O)O)cc3)c2c(=O)[nH]1 [Pemetrexed] (partner 0.2 µM)
How it was run: as §1

Afatinib + Decitabine = compound: CN(C)C/C=C/C(=O)Nc1cc2c(Nc3ccc(F)c(Cl)c3)ncnc2cc1O[C@H]1CCOC1 [Afatinib] + Nc1ncn([C@H]2C[C@H](O)[C@@H](CO)O2)c(=O)n1 [Decitabine] (partner 2 µM)
How it was run: as §1

Afatinib + Vorinostat = compound: CN(C)C/C=C/C(=O)Nc1cc2c(Nc3ccc(F)c(Cl)c3)ncnc2cc1O[C@H]1CCOC1 [Afatinib] + O=C(CCCCCCC(=O)Nc1ccccc1)NO [Vorinostat] (partner 1 µM)
How it was run: as §1

Afatinib + Olaparib = compound: CN(C)C/C=C/C(=O)Nc1cc2c(Nc3ccc(F)c(Cl)c3)ncnc2cc1O[C@H]1CCOC1 [Afatinib] + O=C(c1cc(Cc2n[nH]c(=O)c3ccccc23)ccc1F)N1CCN(C(=O)C2CC2)CC1 [Olaparib] (partner 8 µM)
How it was run: as §1

Question: Which relative viability (Afatinib; 0.005 µM) does the source give for NCI-H522 here?
Answer: 0.929

Question: What about the relative viability (Afatinib; 0.01581 µM) of the same cell line?
Answer: 0.785

Question: And the relative viability (Afatinib; 0.05 µM)?
Answer: 0.703

Question: What about the relative viability (Afatinib; 0.1581 µM) of the same cell line?
Answer: 0.786

Question: What about the relative viability (Afatinib; 0.5 µM) of the same cell line?
Answer: 0.735

Question: What about the relative viability (Afatinib + Trametinib; first compound 0.005 µM) of the same cell line?
Answer: 0.58

Question: And the relative viability (Afatinib + Trametinib; first compound 0.01581 µM)?
Answer: 0.781

Question: What about the relative viability (Afatinib + Trametinib; first compound 0.05 µM) of the same cell line?
Answer: 0.79

Question: What about the relative viability (Afatinib + Trametinib; first compound 0.1581 µM) of the same cell line?
Answer: 0.667

Question: And the relative viability (Afatinib + Trametinib; first compound 0.5 µM)?
Answer: 0.545

Question: And the relative viability (Afatinib + Palbociclib; first compound 0.005 µM)?
Answer: 1

Question: What about the relative viability (Afatinib + Palbociclib; first compound 0.01581 µM) of the same cell line?
Answer: 1.05

Question: And the relative viability (Afatinib + Palbociclib; first compound 0.05 µM)?
Answer: 1.15

Question: What about the relative viability (Afatinib + Palbociclib; first compound 0.1581 µM) of the same cell line?
Answer: 0.881

Question: And the relative viability (Afatinib + Palbociclib; first compound 0.5 µM)?
Answer: 0.675

Question: And the relative viability (Afatinib + Luminespib; first compound 0.005 µM)?
Answer: 1.25

Question: What about the relative viability (Afatinib + Luminespib; first compound 0.01581 µM) of the same cell line?
Answer: 1.19

Question: And the relative viability (Afatinib + Luminespib; first compound 0.05 µM)?
Answer: 0.978

Question: And the relative viability (Afatinib + Luminespib; first compound 0.1581 µM)?
Answer: 0.923

Question: What about the relative viability (Afatinib + Luminespib; first compound 0.5 µM) of the same cell line?
Answer: 1

Question: And the relative viability (Afatinib + OSI-027; first compound 0.005 µM)?
Answer: 0.723

Question: What about the relative viability (Afatinib + OSI-027; first compound 0.01581 µM) of the same cell line?
Answer: 0.594

Question: What about the relative viability (Afatinib + OSI-027; first compound 0.05 µM) of the same cell line?
Answer: 0.631

Question: What about the relative viability (Afatinib + OSI-027; first compound 0.1581 µM) of the same cell line?
Answer: 0.544

Question: What about the relative viability (Afatinib + OSI-027; first compound 0.5 µM) of the same cell line?
Answer: 0.557

Question: And the relative viability (Afatinib + Tozasertib; first compound 0.005 µM)?
Answer: 0.512

Question: And the relative viability (Afatinib + Tozasertib; first compound 0.01581 µM)?
Answer: 0.535

Question: What about the relative viability (Afatinib + Tozasertib; first compound 0.05 µM) of the same cell line?
Answer: 0.521

Question: What about the relative viability (Afatinib + Tozasertib; first compound 0.1581 µM) of the same cell line?
Answer: 0.449

Question: And the relative viability (Afatinib + Tozasertib; first compound 0.5 µM)?
Answer: 0.401

Question: And the relative viability (Afatinib + Dasatinib; first compound 0.005 µM)?
Answer: 0.877

Question: And the relative viability (Afatinib + Dasatinib; first compound 0.01581 µM)?
Answer: 0.992

Question: What about the relative viability (Afatinib + Dasatinib; first compound 0.05 µM) of the same cell line?
Answer: 0.712

Question: And the relative viability (Afatinib + Dasatinib; first compound 0.1581 µM)?
Answer: 0.733

Question: What about the relative viability (Afatinib + Dasatinib; first compound 0.5 µM) of the same cell line?
Answer: 0.692

Question: What about the relative viability (Afatinib + Phenformin; first compound 0.005 µM) of the same cell line?
Answer: 0.729

Question: What about the relative viability (Afatinib + Phenformin; first compound 0.01581 µM) of the same cell line?
Answer: 0.584

Question: And the relative viability (Afatinib + Phenformin; first compound 0.05 µM)?
Answer: 0.643

Question: And the relative viability (Afatinib + Phenformin; first compound 0.1581 µM)?
Answer: 0.532

Question: What about the relative viability (Afatinib + Phenformin; first compound 0.5 µM) of the same cell line?
Answer: 0.698

Question: And the relative viability (Afatinib + AZD7762; first compound 0.005 µM)?
Answer: 0.76

Question: What about the relative viability (Afatinib + AZD7762; first compound 0.01581 µM) of the same cell line?
Answer: 0.812

Question: And the relative viability (Afatinib + AZD7762; first compound 0.05 µM)?
Answer: 0.817

Question: And the relative viability (Afatinib + AZD7762; first compound 0.1581 µM)?
Answer: 0.767

Question: What about the relative viability (Afatinib + AZD7762; first compound 0.5 µM) of the same cell line?
Answer: 0.748

Question: And the relative viability (Afatinib + Pemetrexed; first compound 0.005 µM)?
Answer: 0.928

Question: What about the relative viability (Afatinib + Pemetrexed; first compound 0.01581 µM) of the same cell line?
Answer: 0.889

Question: And the relative viability (Afatinib + Pemetrexed; first compound 0.05 µM)?
Answer: 0.916

Question: What about the relative viability (Afatinib + Pemetrexed; first compound 0.1581 µM) of the same cell line?
Answer: 0.666

Question: What about the relative viability (Afatinib + Pemetrexed; first compound 0.5 µM) of the same cell line?
Answer: 0.807

Question: What about the relative viability (Afatinib + Decitabine; first compound 0.005 µM) of the same cell line?
Answer: 0.644

Question: And the relative viability (Afatinib + Decitabine; first compound 0.01581 µM)?
Answer: 0.672

Question: And the relative viability (Afatinib + Decitabine; first compound 0.05 µM)?
Answer: 0.736

Question: What about the relative viability (Afatinib + Decitabine; first compound 0.1581 µM) of the same cell line?
Answer: 0.655

Question: And the relative viability (Afatinib + Decitabine; first compound 0.5 µM)?
Answer: 0.581

Question: And the relative viability (Afatinib + Vorinostat; first compound 0.005 µM)?
Answer: 0.865

Question: And the relative viability (Afatinib + Vorinostat; first compound 0.01581 µM)?
Answer: 0.928

Question: What about the relative viability (Afatinib + Vorinostat; first compound 0.05 µM) of the same cell line?
Answer: 0.829

Question: And the relative viability (Afatinib + Vorinostat; first compound 0.1581 µM)?
Answer: 0.7

Question: What about the relative viability (Afatinib + Vorinostat; first compound 0.5 µM) of the same cell line?
Answer: 0.721

Question: What about the relative viability (Afatinib + Olaparib; first compound 0.005 µM) of the same cell line?
Answer: 0.573

Question: And the relative viability (Afatinib + Olaparib; first compound 0.01581 µM)?
Answer: 0.726

Question: And the relative viability (Afatinib + Olaparib; first compound 0.05 µM)?
Answer: 0.639

Question: What about the relative viability (Afatinib + Olaparib; first compound 0.1581 µM) of the same cell line?
Answer: 0.532

Question: And the relative viability (Afatinib + Olaparib; first compound 0.5 µM)?
Answer: 0.464
